# Assay results published in patent US20230266321A1, “LIVE CELL ENGAGEMENT ASSAY” (Icahn School of Medicine at Mount Sinai, priority 2020, published 2023).
# Columns and labels:
# KSR1-MEK1 complex = KSR1-MEK1 complex (UniProt Q02750+Q61097, P775N); settings: HCT116 cells, 200 nM, 1 hour
# [1] = target: T1, mouse KSR1-luc (KSR-bound MEK) (UniProt Q02750+Q61097); assay: NanoBRET in-cell steady-state competition with tram-bo on KSR1-luc; assay type: cell-based
# T1 construct: expressed in transfected cells; host or cells: HEK293T
# MEK1-luc = MEK1-luc (Homo sapiens, UniProt Q02750); assay: NanoBRET washout / intracellular residence time on MEK1-luc; settings: cells pre-treated with MEKi, washed, 1 µM tram-bo added
# BRAF-MEK1 complex = BRAF-MEK1 complex (Homo sapiens, UniProt Q02750); settings: HCT116 cells, 200 nM, 1 hour
# KRAS-G12S A549 cells = assay: Long-term clonogenic assay; assay type: cell-based, human; settings: 10 nM final concentration, in comparison to amide-linker compounds (eg. 1, 3)
# Description: Cells were plated at a density of 6,000 cells per well in 6-well plates in 3 mL of culture medium. Twenty-four hours after seeding, compounds dissolved in DMSO or DMSO-only vehicles were added directly to the culture media at a 1:1000 dilution. Following 10 days of culture, cells were washed 2x in PBS, fixed in ice-cold methanol for 10 minutes, stained with crystal-violet at room temperature for 10 minutes, and subsequently washed three times in water. Plates were allowed to dry overnight before imagining with an Epson V600 scanner.
# MEK-NL = target: T2, MEK-NL (Homo sapiens, UniProt Q02750); assay: Tracer buildup curves on MEK-NLuc (NanoBRET); assay type: cell-based; settings: HEK293T cells, 2 hrs at 37° C.; read-out: binding affinity to MEK-NL (tracer buildup curves)
# T2 construct: expressed in transfected cells; host or cells: HEK293T
# Description: (v) Tram-bo and PD-bo buildup curves measure on MEK-NLuc. A human C-terminal NanoLuc fusion of MEK was transfected as mentioned above at a concentration of […] in combination with […] of carrier DNA. […] A 20x solution was added to each well to give final concentrations of 2, 1, 0.5, 0.1, 0.05, 0.01, 0.001, 0.0001 mM for PD-bo, and 1, 0.1, 0.05, 0.01, 0.005, 0.001, 0.0001, 0.00001 for Tram-bo. […] All data were analyzed using Prism 8 (GraphPad)
# [2] = test system: luciferase-tagged human KSR1, KSR2, ARAF, BRAF, and CRAF/RAF1; assay: RAF family tram-bo buildup curves (NanoBRET); assay type: cell-based; settings: BRET buildup curves with increasing tracer concentrations
# Description: Human c-terminal NanoLuc fusions versions of ARAF (Uniprot P10398), BRAF (UniProt P15056), CRAF (Uniprot P04049), KSR1 (Uniprot Q8IVT5), and KSR2 (Uniprot Q6VAB6) were transfected as mentioned above at a concentration of 0.1 µg/mL in combination with 9.9 µg/mL of carrier DNA. All RAF constructs from Promega. […] A 20x tram-bo solution was added to each well to give final concentrations of 4, 1, 0.5, 0.1, 0.05, 0.01, 0.001, 0.0001 µM. […] All data were analyzed using Prism 8 (GraphPad).
# [3] = test system: MEK1, MEK2 and upstream kinases BRAF, CRAF; assay: In vitro kinase profiling, substrate phosphorylation assays; assay type: biochemical; settings: incl. BRAF and CRAF phosphorylation of MEK1 as substrate
# [4] = test system: MEK1 and MEK2 (kinase panel incl. BRAF, CRAF); assay: In vitro kinase profiling, direct binding assays; settings: 1 µM
# [5] = test system: phosphorylated ERK1/2 (T202/Y204); assay: Immunoblot of RAS/ERK pathway inhibition; assay type: cell-based, human; settings: 1 hour, increasing concentrations, relative to trametinib
# Description: Cells were plated at a density of 300,000 cells per well in 6-well plates in 2 mL of culture medium. 24 hours after seeding, cells were treated with compounds or DMSO at a 1:1000 dilution (0.1 % DMSO in final volume). […] Samples were normalized to a protein content of 5 µg/µL in 100 µL total volume, and 20 µL of 6x SDS was added. […] Transfers were confirmed using ponceau red, washed, and then blocked for 1 hour with 5% BSA TBS-T, prior to overnight incubation with primary antibodies including phospho-ERK1/2 T202/Y204 and total ERK1/2 (Cell Signaling Technologies (CST) 9101S and 4695S, respectively) in 5% BSA TBS-T. The next day, blots were washed extensively, and incubated in secondary antibody (Anti-Rabbit IgG HRP-Linked CST 7074S).
# HCT116 cells = assay: Cell proliferation/viability assay under low-adherence conditions; assay type: cell-based, human
# Description: A375, A549, HCT116, and SKMEL-239 cells were plated in Corning Costar Ultra-Low Attachment 96-well plates (Reference number 3434). After 24 hours of incubation at 37° C., cells were treated with inhibitors (0.1% DMSO in final volume). Cells were grown for five days, and resazurin sodium salt was added at a final concentration of 0.01 µg/µL. Fluorescence was measured using a Molecular Devices SpectraMax M5 spectrophotometer after a 4-24-hour incubation with resazurin solution. Technical triplicate values were averaged for each experiment, and biological replicate values are represented as average +/- standard deviation. For each cell line, logEC50 values of inhibitors were statistically compared using the extra sum-of-squares F test in GraphPad Prism 8 (FIGS. 57, 58, 67, 68, 69).
# [6] = HCT116, low-adherence conditions
smiles,measurement,setting,value
O=C(c1ccc(F)c(F)c1Nc1ccc(I)cc1F)N1CC(O)([C@@H]2CCCCN2)C1 [cobimetinib],effect on complex stability of K1 (KSR1 P775N) and B2 (BRAF R662A) mutants with MEK (co-IP),KSR1-MEK1 complex,did not alter complex stability
same,IC50,"[1]; HEK293T cells, 1 µM tram-bo tracer, equilibrium binding, mean ± s.e.m., read-out: steady-state IC50 against KSR1-luc",5.1 ± 0.7 nM
same,difference in potency between KSR1-luc and MEK1-luc,[1]; IC50 MEK1-luc vs KSR1-luc,~20 fold
same,dissociation kinetics after washout on MEK1-luc,MEK1-luc,dissociated more readily
"CNS(=O)(=O)Nc1nccc(Cc2c(C)c3ccc(Oc4ncccn4)cc3oc2=O)c1F [CH5126766, reference compound]",effect on BRAF pulled down via endogenous MEK1 (co-IP),BRAF-MEK1 complex,enhances interactions between endogenous BRAF and MEK1
Cc1c(=O)n(C)c(Nc2ccc(I)cc2F)c2c(=O)n(C3CC3)c(=O)n(-c3cccc(NS(=O)(=O)NC4CC4)c3)c12 [compound 5],growth inhibition in long-term clonogenic assay,KRAS-G12S A549 cells,enhanced and durable growth inhibition
Cc1c(=O)n(C)c(Nc2ccc(I)cc2F)c2c(=O)n(C3CC3)c(=O)n(-c3cccc(NC(=O)CCOCCOCCNC(=O)CCC4=[N+]5C(=Cc6ccc(-c7ccc[nH]7)n6[B-]5(F)F)C=C4)c3)c12 [Tram-bo],EC50,MEK-NL,4.7 nM
same,"tighter binding on KSR1-luc and KSR2-luc relative to ARAF-luc, BRAF-luc, and CRAF-luc",[2],~ 10 fold
CCN(C)S(=O)(=O)Nc1cccc(-n2c(=O)n(C3CC3)c(=O)c3c(Nc4ccc(I)cc4F)n(C)c(=O)c(C)c32)c1 [compound 6],growth inhibition in long-term clonogenic assay,KRAS-G12S A549 cells,enhanced and durable growth inhibition
CNS(=O)(=O)Nc1cccc(-n2c(=O)n(C3CC3)c(=O)c3c(Nc4ccc(I)cc4F)n(C)c(=O)c(C)c32)c1 [trametiglue],inhibition in substrate phosphorylation assays,[3],"not only inhibited MEK1 and MEK2, but also upstream kinases"
same,growth inhibition in long-term clonogenic assay,KRAS-G12S A549 cells,enhanced and durable growth inhibition
same,potency and off-rate kinetics in cellular target engagement assays,"[1]; KSR-luc or MEK-luc reporters, residence time at 6.25 nM",retained similar potency and off-rate kinetics as trametinib
same,direct interaction with isolated BRAF or CRAF in binding experiments,[4],no direct interactions towards isolated BRAF or CRAF
same,selectivity in direct binding assays,[4],strong selectivity towards MEK1 and MEK2
same,effect on BRAF pulled down via endogenous MEK1 (co-IP),BRAF-MEK1 complex,markedly enhanced capture of BRAF
same,inhibition of RAS-MAPK signaling as measured by pERK,[5],higher potency inhibitor of RAS-MAPK signaling
same,improvement in potency relative to CH5126766,HCT116 cells; [6],~200 fold
same,improvement in potency relative to trametinib,HCT116 cells; [6],approximately 7 fold
same,IC50,"HCT116 cells; low-adherence conditions, five days, resazurin, read-out: IC50 in the cell line HCT116",0.07 ± 0.04 nM
